The text below walks through data of US20130210143A1, “NOVEL METHODS FOR PREVENTING OR TREATING DIABETES” (FUNDACION PUBLICA ANDALUZA PROGRESO Y SALUD, priority 2010, published 2013).

In series [1] the test system is human islets. The experiment in a line: MTT toxicity test (cell viability) in isolated human islets. It counts as cell-based. The conditions noted are these: for Islet viability (MTT): islets of the first Type 2 diabetic donor, 48 h, Formula II at 50 uM. The method, then: The MTT (C,N-diphenyl-N′-4,5-dimethyl thiazol-2-yl tetrazolium bromide) colorimetric assay (reduction of tetrazolium salt to formazan) was used to measure cell viability. The assay provides an indirect estimation of mitochondrial oxidative processes of living cells (Janjic, 1992). Briefly, 40 isolated human islets were incubated for 24 or 48 hours with DMSO or a combination of DMSO and the LRH-1 agonist of Formula II. Islets were washed and pre-incubated with KRBH at 37° C. for 40 minutes. Islets were then incubated at 37° C. for 90 minutes with KRBH containing yellow MTT (0.5 mg/ml). Cells were wash and incubated for 20 minutes at room temperature in DMSO to solubilize formazan crystals. Colorimetric measurements were performed at 570 nm with reference wavelength 650 nm automatically subtracted.

Another series relates to Type 2 diabetic islets. Briefly: Glucose-stimulated insulin secretion, islets from Type 2 diabetic donors. Format: cell-based, human. The method, then:
(§1) Twenty human islets/sample were preincubated with KRBH buffer (135 mM NaCl, 3.6 mM KCl, 2 mM NaHCO3, 0.5 mM NaH2PO4, 0.5 mM MgSO4, 1.5 mM CaCl2, 10 mM HEPES, pH 7.4, and 0.1% bovine serum albumin) containing 2.5 mM glucose for 30 min. Cells were then incubated for 30 min in KRBH buffer containing 2.5 mM or 16.5 mM glucose. In some instances islets were also cultured in the presence of increasing concentrations of a LRH-1 agonist of Formula II or glibenclamide. Insulin content, obtained by 10% acetic acid/ethanol (v/v) treatment on islets, and secreted insulin were quantified using the rat insulin enzyme immunoassay kit (Spi-Bio, Montigny le Bretonneux, France).

For a further series, the system named is LRH-1. Briefly: Quantitative RT-PCR of LRH-1 transcript levels in treated human islets. It counts as cell-based. The following applies: for LRH-1 expression (transcript levels): 10 nM 17β-estradiol (6 hours) or 10 or 50 uM Formula II (any time point). The method, then: (§2) INS-1E cells or islets (rat or human) were cultured in phenol red free medium containing 10% Charcoal-stripped FCS for 48 h. The latter removes all traces of endogenous steroids, which may skew results. Subsequently, 0.0001% DMSO (vehicle) and/or 10 nM 17β-estradiol were added to the media. Alternatively human islets were also treated with increasing concentrations of either DMSO (vehicule) or with a combination of estrogen and the LRH-1 agonist of Formula II (SevenHills Pharma, Fort Collins, USA) for various time intervals. For apoptosis studies (FIG. 8A), islets were pre-treated with 0.1% DMSO (vehicule) or with 10 μM of the LRH-1 agonist of Formula II. Twenty-four hours later, DMSO or the LRH-1 agonist of Formula II were added again to the medium and incubated for 1 extra hour prior to the addition of either a cocktail of human cytokines (2 ng/ml IFN-γ, IL-1β and TNF-α). Samples of 50 islets were then collected at 24 and 72 hours. The media was replenished with DMSO and the LRH-1 agonist of Formula II at 24 and 48 hours.
(§3) Total RNA was extracted using the RNeasy Micro Kit (Qiagen) and 1-2 μg was converted into cDNA with the Superscript II Reverse transcriptase (Invitrogen). Primers were designed using the Primer Express software (Applera Europe, Rotkreuz, Switzerland) and sequences are provided in Table 1. Real time PCR was performed using an ABI 7000 Sequence Detection System (Applera Europe), and PCR products were quantified fluorometrically using the FastStart Universal SYBR Green Master (Roche Diagnostics, Rotkreuz, Switzerland). Three distinct amplifications were performed in duplicate for each transcript, and mean values were normalized to the mean value of the reference mRNA cyclophilin.

Another series has as its system SHP. Briefly: Quantitative RT-PCR of SHP (LRH-1 downstream target) transcript levels in treated human islets. It counts as cell-based. The conditions noted are these: for Further stimulation of SHP expression: human islets, increased concentration of Formula II or addition of 17β-estradiol. The method, then: as §2, §3
Series [2] concerns human islets. The experiment in a line: Cytokine-induced apoptosis in human islets (Cell Death Detection ELISA). The following applies: 10 uM, cytokines 2 ng/ml IFN-γ, IL-1β and TNF-α, 24 hours post-treatment. It counts as cell-based. The method, then:
INS-1E cells or islets (rat or human) were cultured in phenol red free medium containing 10% Charcoal-stripped FCS for 48 h. The latter removes all traces of endogenous steroids, which may skew results. Subsequently, 0.0001% DMSO (vehicle) and/or 10 nM 17β-estradiol were added to the media. Alternatively human islets were also treated with increasing concentrations of either DMSO (vehicule) or with a combination of estrogen and the LRH-1 agonist of Formula II (SevenHills Pharma, Fort Collins, USA) for various time intervals. For apoptosis studies (FIG. 8A), islets were pre-treated with 0.1% DMSO (vehicule) or with 10 μM of the LRH-1 agonist of Formula II. […]
For proliferation, 10 μM BrdU was added to INS-1E cells for 3 h, and to rat or human islets for 24 h. […] Cell apoptosis induced either by cytokines or streptozotocin was measured using the TUNEL assay (In Situ Cell Death Detection Kit, Roche). Alternatively, the Cell Death Detection ELISA^PLUS (Roche) was used to quantify the degree of cytoplasmic histone-associated-DNA-fragments. Results of BrdU and TUNEL assays are expressed as a percentage of BrdU- or TUNEL-positive cells (fluorescein- or TMR-red-labelled nuclei) over the total amount of cells (nuclei staining by DAPI). […]

The test system of a further series is control islets. The experiment in a line: Glucose-stimulated insulin secretion, control (non-diabetic) human islets. Format: cell-based. The method, then:
as §1

The target of series [3] is T1, ligand binding domain of human LRH1 (Homo sapiens, UniProt O00482).
T1 construct: made in house
T1 sequence (O00482 300-541): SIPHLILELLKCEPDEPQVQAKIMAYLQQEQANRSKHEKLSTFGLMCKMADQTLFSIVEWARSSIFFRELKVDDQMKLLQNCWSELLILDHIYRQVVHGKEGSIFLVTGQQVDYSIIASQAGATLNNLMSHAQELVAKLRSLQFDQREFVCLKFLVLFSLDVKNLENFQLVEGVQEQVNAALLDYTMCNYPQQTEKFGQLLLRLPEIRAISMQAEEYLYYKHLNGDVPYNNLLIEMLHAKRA
The following applies: Whitby et al. (2006); cited from earlier work.

The mark [4] stands for this setting: islets from a second Type 2 diabetic donor.

Structures are written as SMILES. “Also recorded” adds a separate entry of the source.

For `COc1ccc(Cl)cc1C(=O)NCCc1ccc(S(=O)(=O)NC(=O)NC2CCCCC2)cc1` [Glibenclamide, reference compound], the “Islet viability (MTT)” value with human islets [1] is on record as “impaired cell viability”. Further, the “Insulin secretion at high glucose as compared to control islets” value in the series with Type 2 diabetic islets (islets from a Type 2 diabetic donor, high glucose (16.5 mM)) was determined as 214%. Moreover, the “Increase in insulin secretion at low glucose” value in the series with Type 2 diabetic islets (islets from a Type 2 diabetic donor, low glucose) stood at 80%.
With `CCC/C=C(\CCC)C1=C(c2cccc(OC)c2)C2(Nc3ccccc3)CCCC2C1` (stereo not drawn) [Formula II], the “Viability by MTT (cytotoxicity)” value in the series with human islets [1] (human islets, up to 50 uM, 24 or 48 hours post treatment) is listed as “no toxic effects; also recorded: no apparent detrimental effect”. In addition, the “Islet viability (MTT)” value with human islets [1] is listed as “slightly reduced”. Further, the “LRH-1 expression (transcript levels)” value in the series on LRH-1 is recorded as “did not enhance transcript levels”. In the series with LRH-1 (Formula II combined with 17β-estradiol), the “LRH-1 expression on addition to 17β-estradiol” value is reported as “prevented the induction of LRH-1 expression”. In addition, the “SHP transcript levels, increase” value in the series with SHP (human islets treated for 10 hours, transient) worked out at 2 fold. The “Further stimulation of SHP expression” value in the series with SHP was “did not further stimulate expression of SHP”. In addition, in the series with human islets [2], the “Cytokine-induced enrichment in apoptotic cells, 24 hours” value was “completely abrogated”. In the series on control islets (50 uM, low glucose), the “Increase in basal insulin exocytosis” value was 50%. The Glucose-induced insulin secretion result with control islets (16.5 mM glucose) is on record as “unchanged”. Moreover, the Glucose-induced insulin secretion entry in the series with Type 2 diabetic islets (islets from a Type 2 diabetic donor, 50 uM, not significant) is given as “slight increase”. Moreover, in the series with Type 2 diabetic islets (setting [4]), the “Insulin secretion in response to high glucose concentrations” value is listed as “increased insulin secretion” and the “Insulin secretion in response to low glucose concentrations” value is recorded as “increased insulin secretion”. Besides, the EC50 in series [3] was 430 nM.
For `C[C@]12CC[C@@H]3c4ccc(O)cc4CC[C@H]3[C@@H]1CC[C@@H]2O` [17β-estradiol, reference compound], the “LRH-1 expression (transcript levels)” value in the series on LRH-1 was “transiently increased”. For the same molecule, the “Further stimulation of SHP expression” value in the series on SHP is given as “did not further stimulate expression of SHP”.
